# Reference: article PMC13469122, “Structural and mechanistic insights into primer synthesis initiation by DNA primase” (Nature Communications, 2026)
# Key:
# [1] = target: T1, primase (pRN1 primase, residues 40-370) (Saccharolobus islandicus, UniProt Q54324); test: solid-state hPH NMR; assay type: binding; conditions: with DNA^CT; triphosphate at NTP^S site
# T1 construct: Catalytic domain, linker and helix bundle domain, residues 40-370; C-terminal His6 without cleavage site; E. coli BL21(DE3) CodonPlus, pET28c
# [2] = target: T2, HBD (helix bundle domain) of pRN1 primase (Saccharolobus islandicus, UniProt Q54324); test: solution NMR; assay type: binding
# T2 construct: Helix bundle domain 261-370 plus linker 256-260; residual GHM (253-255) after TEV cleavage of N-terminal His6; E. coli BL21(DE3) CodonPlus, pET28c
# [3] = target: T3, primase (pRN1 primase, residues 40-370) (Saccharolobus islandicus, UniProt Q54324, H145A); test: solid-state hPH NMR (also NHHP, CHHP); assay type: binding; conditions: with DNA^CT and ATP^N, 309 K; NTP^S site
# T3 construct: Catalytic domain, linker and helix bundle domain, residues 40-370; C-terminal His6 without cleavage site; E. coli BL21(DE3) CodonPlus, pET28c
# [4] = target: T4, pRN1 primase helix bundle domain (HBD) (Sulfolobus islandicus plasmid pRN1, UniProt Q54324 256-370); test: ITC; 1 mM dGTP, 10 mM Mg2+; Kd not printed in the material; 25 mM sodium phosphate, 50 mM NaCl, 10 mM MgCl2, pH 7.0; ITC and HBD NMR 298 K, primase NMR 313 K; conditions: protein: recombinant; tags: non-native GHM (numbered 253-255) left after TEV cleavage of N-terminal His6; single strand
# T4 sequence: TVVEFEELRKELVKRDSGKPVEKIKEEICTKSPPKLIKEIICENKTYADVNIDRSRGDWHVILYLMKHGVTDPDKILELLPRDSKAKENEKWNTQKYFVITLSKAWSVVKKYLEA
# pRN1 primase H145A = target: T5, pRN1 primase H145A (Sulfolobus islandicus plasmid pRN1, UniProt Q54324 40-370, H145A); test: NMR (solid-state hPH, NHHP, CHHP); ATPN + dGTPC; 25 mM sodium phosphate, 50 mM NaCl, 10 mM MgCl2, pH 7.0; ITC and HBD NMR 298 K, primase NMR 313 K; conditions: protein: recombinant; tags: C-terminal His6, not cleaved; single strand
# T5 sequence: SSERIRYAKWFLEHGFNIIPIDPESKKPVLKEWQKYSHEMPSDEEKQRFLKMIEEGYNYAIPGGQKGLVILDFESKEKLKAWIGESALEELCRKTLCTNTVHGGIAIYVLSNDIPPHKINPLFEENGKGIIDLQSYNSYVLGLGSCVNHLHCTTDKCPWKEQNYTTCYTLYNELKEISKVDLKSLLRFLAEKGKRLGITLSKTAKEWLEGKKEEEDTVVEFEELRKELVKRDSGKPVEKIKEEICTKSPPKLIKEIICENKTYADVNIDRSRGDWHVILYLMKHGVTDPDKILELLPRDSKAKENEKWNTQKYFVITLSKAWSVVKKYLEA
# T1 sequence (Q54324 entry or part of it): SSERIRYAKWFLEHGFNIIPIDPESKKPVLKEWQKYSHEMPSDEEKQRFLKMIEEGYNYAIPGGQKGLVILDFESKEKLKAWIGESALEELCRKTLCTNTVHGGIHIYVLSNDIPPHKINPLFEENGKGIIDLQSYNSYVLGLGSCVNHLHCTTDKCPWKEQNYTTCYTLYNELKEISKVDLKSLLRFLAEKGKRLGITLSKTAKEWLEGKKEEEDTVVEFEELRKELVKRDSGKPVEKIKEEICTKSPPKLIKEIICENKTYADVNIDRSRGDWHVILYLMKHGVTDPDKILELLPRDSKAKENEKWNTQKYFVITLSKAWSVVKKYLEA
molecule,measurement,setting,value
Nc1nc2c(ncn2[C@H]2C[C@H](O)[C@@H](COP(=O)(O)O[C@H]3[C@@H](O)[C@H](n4cnc5c(N)ncnc54)O[C@@H]3COP(=O)(O)OP(=O)(O)NP(=O)(O)O)O2)c(=O)[nH]1,solid-state hPH NMR,[1],the solid-state hPH NMR spectrum of the primase-DNA^CT-pNHppApG complex
Nc1ncnc2c1ncn2[C@@H]1O[C@H](COP(=O)(O)OP(=O)(O)OP(=O)(O)O)[C@@H](O)[C@H]1O [ATP],solution NMR,"[2]; with DNA^CT and dGTP, NTP^W site (displaced from NTP^S site by dGTP)",the second ATP remains bound at the NTP^W site without base-pairing with T2
Nc1nc2c(ncn2[C@H]2C[C@H](O)[C@@H](COP(=O)(O)OP(=O)(O)OP(=O)(O)O)O2)c(=O)[nH]1 [dGTP],solution NMR,"[2]; with DNA^CT and ATP, NTP^S site",dGTP displaces ATP at the NTP^S site to base-pair with C1
Nc1nc2c(ncn2[C@H]2C[C@H](O)[C@@H](COP(=O)(O)OP(=O)(O)CP(=O)(O)O)O2)c(=O)[nH]1 [dGTP^C],"solid-state hPH NMR (also NHHP, CHHP)",[3],"ATP^N binds at the NTP^W site, while dGTP^C occupies the NTP^S site"
CTGTGCTCA (ssDNA) [DNACT],binding signal,[4],~5 fold tighter GTG recognition than with ATP
same,binding result,pRN1 primase H145A,binds
